According to patent publication US11081236B2, “Diagnostic and therapeutic methods for the treatment of breast cancer” (GENENTECH, INC., priority 2018, dated 2021):

Key:
Format in all cases: cell-based
EFM19 = test: RNA sequencing after E2 or DMSO treatment, EFM19
Procedure: (§1) To derive a transcriptional signature of ER pathway activity, RNA sequencing was performed on seven breast cancer cell lines following treatment with either DMSO or 1 μM estradiol (E2) for 24 hours. Briefly, RNA libraries for cell lines were made with TRUSEQ® RNA sample preparation kit (ILLUMINA®) according to the manufacturer's protocol. The libraries were sequenced on an ILLUMINA® Hi Seq 2000, using 1-4 lanes per cell line. RNA sequencing (RNA-seq) data were analyzed with HTSeqGenie (R package version 3.14.0) in BioConductor (Huber et al. Nature Methods. 112:115-21, 2015) as follows: reads were trimmed to 75 base pairs (bp), filtered for quality and rRNA/adapter contamination, and aligned to the reference genome GRCh38 using GSNAP (Wu et al. Bioinforma Oxf Engl. 26:873-81, 2010). Gene expression was quantified as Reads per Kilobase of exon model per Million mapped reads normalized by size factor (nRPKM), defined as number of reads aligning to a gene in a sample/(total number of uniquely mapped reads for that sample x gene length x size factor). Genes without gene symbol and genes of uncertain function (LOC and Corf symbols) were excluded.

T47D = test: RNA sequencing after E2 or DMSO treatment, T47D
Procedure: as §1

BT474 = test: RNA sequencing after E2 or DMSO treatment, BT474
Procedure: as §1

CAMA1 = test: RNA sequencing after E2 or DMSO treatment, CAMA1
Procedure: as §1

[1] = gene NBEA, 1 μM E2 24 hours vs DMSO
[2] = gene PNPLA7, 1 μM E2 24 hours vs DMSO
[3] = gene PSCA, 1 μM E2 24 hours vs DMSO
[4] = gene SEMASE, 1 μM E2 24 hours vs DMSO
[5] = gene SSPO, 1 μM E2 24 hours vs DMSO
[6] = gene STON1, 1 μM E2 24 hours vs DMSO
[7] = gene TGFB3, 1 μM E2 24 hours vs DMSO
[8] = gene TP53INP1, 1 μM E2 24 hours vs DMSO
[9] = gene TP53INP2, 1 μM E2 24 hours vs DMSO
[10] = gene BAMBI, 1 μM E2 24 hours vs DMSO
[11] = gene BCAS1, 1 μM E2 24 hours vs DMSO
[12] = gene CCNG2, 1 μM E2 24 hours vs DMSO
[13] = gene DDEE4, 1 μM E2 24 hours vs DMSO
[14] = gene EGLN3, 1 μM E2 24 hours vs DMSO
[15] = gene FAM1718, 1 μM E2 24 hours vs DMSO
[16] = gene GRM4, 1 μM E2 24 hours vs DMSO
[17] = gene IL1R1, 1 μM E2 24 hours vs DMSO
[18] = gene LIPH, 1 μM E2 24 hours vs DMSO

## C[C@]12CC[C@@H]3c4ccc(O)cc4CC[C@H]3[C@@H]1CC[C@@H]2O [Compound E2, estradiol]
EFM19; [1]
  Log2 FC E2 vs no E2: NBEA: −1.105
EFM19; [2]
  Log2 FC E2 vs no E2: PNPLA7: −0.901
EFM19; [3]
  Log2 FC E2 vs no E2: PSCA: −1.593
EFM19; [4]
  Log2 FC E2 vs no E2: SEMASE: −1.100
EFM19; [5]
  Log2 FC E2 vs no E2: SSPO: −0.605
EFM19; [6]
  Log2 FC E2 vs no E2: STON1: −1.500
EFM19; [7]
  Log2 FC E2 vs no E2: TGFB3: −1.350
EFM19; [8]
  Log2 FC E2 vs no E2: TP53INP1: −1.461
EFM19; [9]
  Log2 FC E2 vs no E2: TP53INP2: −1.373
T47D; [10]
  Log2 FC E2 vs no E2: BAMBI: −1.394
T47D; [11]
  Log2 FC E2 vs no E2: BCAS1: −2.536
T47D; [12]
  Log2 FC E2 vs no E2: CCNG2: −1.310
T47D; [13]
  Log2 FC E2 vs no E2: DDEE4: −1.878
T47D; [14]
  Log2 FC E2 vs no E2: EGLN3: −2.052
T47D; [15]
  Log2 FC E2 vs no E2: FAM1718: −1.158
T47D; [16]
  Log2 FC E2 vs no E2: GRM4: −1.340
T47D; [17]
  Log2 FC E2 vs no E2: IL1R1: −2.433
T47D; [18]
  Log2 FC E2 vs no E2: LIPH: −1.330
T47D; [1]
  Log2 FC E2 vs no E2: NBEA: −1.368
T47D; [2]
  Log2 FC E2 vs no E2: PNPLA7: −1.211
T47D; [3]
  Log2 FC E2 vs no E2: PSCA: −1.253
T47D; [4]
  Log2 FC E2 vs no E2: SEMASE: −0.741
T47D; [5]
  Log2 FC E2 vs no E2: SSPO: −1.181
T47D; [6]
  Log2 FC E2 vs no E2: STON1: −2.304
T47D; [7]
  Log2 FC E2 vs no E2: TGFB3: −1.263
T47D; [8]
  Log2 FC E2 vs no E2: TP53INP1: −1.363
T47D; [9]
  Log2 FC E2 vs no E2: TP53INP2: −0.959
BT474; [10]
  Log2 FC E2 vs no E2: BAMBI: −1.153
BT474; [11]
  Log2 FC E2 vs no E2: BCAS1: −1.110
BT474; [12]
  Log2 FC E2 vs no E2: CCNG2: −0.935
BT474; [13]
  Log2 FC E2 vs no E2: DDEE4: −0.862
BT474; [14]
  Log2 FC E2 vs no E2: EGLN3: −0.118
BT474; [15]
  Log2 FC E2 vs no E2: FAM1718: −1.279
BT474; [16]
  Log2 FC E2 vs no E2: GRM4: −1.883
BT474; [17]
  Log2 FC E2 vs no E2: IL1R1: −1.490
BT474; [18]
  Log2 FC E2 vs no E2: LIPH: −0.804
BT474; [1]
  Log2 FC E2 vs no E2: NBEA: −0.346
BT474; [2]
  Log2 FC E2 vs no E2: PNPLA7: −1.427
BT474; [3]
  Log2 FC E2 vs no E2: PSCA: −1.956
BT474; [4]
  Log2 FC E2 vs no E2: SEMASE: −1.101
BT474; [5]
  Log2 FC E2 vs no E2: SSPO: −1.739
BT474; [6]
  Log2 FC E2 vs no E2: STON1: −0.650
BT474; [7]
  Log2 FC E2 vs no E2: TGFB3: −0.304
BT474; [8]
  Log2 FC E2 vs no E2: TP53INP1: −1.496
BT474; [9]
  Log2 FC E2 vs no E2: TP53INP2: −2.069
CAMA1; [10]
  Log2 FC E2 vs no E2: BAMBI: −1.072
CAMA1; [11]
  Log2 FC E2 vs no E2: BCAS1: −2.311
CAMA1; [12]
  Log2 FC E2 vs no E2: CCNG2: −2.094
CAMA1; [13]
  Log2 FC E2 vs no E2: DDEE4: −2.737
CAMA1; [14]
  Log2 FC E2 vs no E2: EGLN3: −1.533
CAMA1; [15]
  Log2 FC E2 vs no E2: FAM1718: −2.271
CAMA1; [16]
  Log2 FC E2 vs no E2: GRM4: −2.021
CAMA1; [17]
  Log2 FC E2 vs no E2: IL1R1: −1.686
CAMA1; [18]
  Log2 FC E2 vs no E2: LIPH: −1.583
CAMA1; [1]
  Log2 FC E2 vs no E2: NBEA: −1.550
CAMA1; [2]
  Log2 FC E2 vs no E2: PNPLA7: −2.068
CAMA1; [3]
  Log2 FC E2 vs no E2: PSCA: −3.517
CAMA1; [4]
  Log2 FC E2 vs no E2: SEMASE: −1.374
CAMA1; [5]
  Log2 FC E2 vs no E2: SSPO: −2.298
CAMA1; [6]
  Log2 FC E2 vs no E2: STON1: −2.609
CAMA1; [7]
  Log2 FC E2 vs no E2: TGFB3: −1.444
CAMA1; [8]
  Log2 FC E2 vs no E2: TP53INP1: −3.177
CAMA1; [9]
  Log2 FC E2 vs no E2: TP53INP2: −2.068
